# Assays:
# [1] = tested on: DOHH2; assay: Panel of growth inhibition assays (OncoPanel 240); type: cell-based; settings: Homo sapiens, DOHH-2; 72 h; lymphoma; read-out: IC50 (Oncopanel, cell count)
# Experimental: (§1) The KINOMEScan‐based kinase selectivity assay was performed at the DiscoverX Corporation (Fremont, CA, USA). The panel of growth inhibition assay and subsequent bioinformatics analysis (Fig EV1) were performed at Eurofins Inc. (St. Charles, MO, USA), using OncoPanel 240 or 60. Details of the procedures of cell proliferation assay, caspase‐3/7 activity assay, immunoblotting, and immunohistochemistry are described in Appendix Supplementary Methods.
# (§2) Panel of growth inhibition assay and subsequence bioinformatics analysis (at […]
# (§3) A growth inhibition assay panel and subsequent bioinformatics analysis were performed at Eurofins Inc. (MO, U.S.A.) by utilizing Oncopanel240 or 60.
# (§4) According to the study reports from Eurofins Inc., cells were seeded into 384 well plates at a single cell density in standardized media. After 24 hours, the test compounds were added and the plate was incubated continuously for 72 hours. Cells were then fixed and stained to visualize nuclei. The number of nuclei was counted and normalized.
# (§5) Cellular response parameters were calculated using nonlinear regression to a sigmoidal single-site dose response model and the IC50 value of each cell line was calculated.
# (§6) Genomic features were binned into six distinct categories, each of which was considered to be a “biomarker-positive” grouping: Mutated (non-synonymous, coding, and non-coding mutations), Amplified, Deleted, Overexpressed, Mutated or amplified (gain-of-function), and Mutated or deleted (loss-of-function). Two orthogonal significance tests were performed on each genomic feature as follows.
# (§7) Student’s t-test: For each genomic feature within each of the six above categories, IC50 cell count values for biomarker-positive and biomarker-negative groups were […]
# [2] = tested on: THP1; assay: Panel of growth inhibition assays (OncoPanel 240); type: cell-based; settings: Homo sapiens, THP-1; 72 h; leukemia; read-out: IC50 (Oncopanel, cell count)
# Experimental: as §1, §2, §3, §4, §5, §6, §7
# [3] = tested on: K562; assay: Panel of growth inhibition assays (OncoPanel 240); type: cell-based; settings: Homo sapiens, 72 h, leukemia, read-out: IC50 (Oncopanel, cell count)
# Experimental: as §1, §2, §3, §4, §5, §6, §7
# [4] = tested on: HEL9217; assay: Panel of growth inhibition assays (OncoPanel 240); type: cell-based; settings: Homo sapiens, HEL 92.1.7; 72 h; leukemia; read-out: IC50 (Oncopanel, cell count)
# Experimental: as §1, §2, §3, §4, §5, §6, §7
# [5] = tested on: U266B1; assay: Panel of growth inhibition assays (OncoPanel 240); type: cell-based; settings: 72 h; myeloma; read-out: IC50 (Oncopanel, cell count)
# Experimental: as §1, §2, §3, §4, §5, §6, §7
# [6] = tested on: MDA-MB-468; assay: Panel of growth inhibition assays (OncoPanel 240); type: cell-based; settings: Homo sapiens, 72 h, breast cancer, read-out: IC50 (nmol/L) Oncopanel
# Experimental: as §1, §2, §3, §4, §5, §6, §7
# [7] = tested on: DB; assay: Panel of growth inhibition assays (OncoPanel 240); type: cell-based; settings: Homo sapiens, 72 h, lymphoma, read-out: IC50 (Oncopanel, cell count)
# Experimental: as §1, §2, §3, §4, §5, §6, §7
# [8] = tested on: 786-O; assay: Panel of growth inhibition assays (OncoPanel 240); type: cell-based; settings: Homo sapiens, 786-0; 72 h; kidney cancer; read-out: IC50 (nmol/L) Oncopanel
# Experimental: as §1, §2, §3, §4, §5, §6, §7
# [9] = tested on: MOLT16; assay: Panel of growth inhibition assays (OncoPanel 240); type: cell-based; settings: Homo sapiens, MOLT-16; 72 h; leukemia; read-out: IC50 (Oncopanel, cell count)
# Experimental: as §1, §2, §3, §4, §5, §6, §7
# [10] = tested on: RAJI; assay: Panel of growth inhibition assays (OncoPanel 240); type: cell-based; settings: Homo sapiens, 72 h, lymphoma, read-out: IC50 (Oncopanel, cell count)
# Experimental: as §1, §2, §3, §4, §5, §6, §7
# [11] = tested on: COLO320HSR; assay: Panel of growth inhibition assays (OncoPanel 240); type: cell-based; settings: Homo sapiens, COLO-320-HSR; 72 h; colorectal cancer; read-out: IC50 (nmol/L) Oncopanel
# Experimental: as §1, §2, §3, §4, §5, §6, §7
# [12] = tested on: MV-4-11; assay: Panel of growth inhibition assays (OncoPanel 240); type: cell-based; settings: Homo sapiens, MV4-11; 72 h; leukemia; read-out: IC50 (Oncopanel, cell count)
# Experimental: as §1, §2, §3, §4, §5, §6, §7
# [13] = Pharmacokinetics evaluation, unbound plasma concentration after oral administration; type: in vivo; settings: nude mice, mean, calculated using protein binding
# Experimental: The black dotted line indicates the relative ATP value prior to treatment (Day 0). • C The number of AS events modulated by T‐025 treatment for 6 h in MDA‐MB‐468 cells. The numbers of AS events with a BF > 20 and |ΔPSI| > 0.1 were counted and categorized according to the AS type (SE, skipped exon; RI, retained intron; A5′SS, alternative 5′‐splice‐site; A3′SS, alternative 3′‐splice‐site; MEE, mutually exclusive exon; AFE, alternative first exon; ALE, alternative last exon). • D–F MDA‐MB‐468 xenograft tumors treated with 50 mg/kg of T‐025 were sampled and analyzed by immunohistochemistry […], immunoblotting (E), or RT–PCR (F). Representative images of pCLK2 stained tumors and scale bar (30 μm) are shown. Also shown: The mean unbound plasma T‐025 concentration was calculated using protein binding after oral administration. • G, H Anti‐tumor efficacy of T‐025 in MDA‐MB‐468 xenograft models. T‐025 was administered twice daily on 2 days per week (red arrows). Tumor volume (G) and body weight (H) during the efficacy study are shown as means ± s.e.m. (n = 5). Data information: In (B, D, and F), data are shown as the means ± s.d. of three independent experiments (n = 3). In (G and H), an unpaired Student's t‐test was performed.Source data are available online for this figure. TEXT PRINTED IN THE PICTURE: (D) T-025: Unbound plasma Conc. (nmol/L): 554 (50 mg/kg; 2 h); Unbound plasma Conc. (nmol/L): 97 (50 mg/kg; 4 h); Unbound plasma Conc. (nmol/L): 105 (50 mg/kg; 8 h); Unbound plasma Conc. (nmol/L): 0 (50 mg/kg; 24 h)
# Then, we evaluated T‐025 in an animal model.
# [14] = tested on: MV-4-11 AML cell line xenografts; assay: Efficacy study in MV-4-11 xenograft model; type: in vivo, Balb/c nude mice; settings: 37.5 and 50 mg/kg
# Experimental: MDA‐MB‐468 (5 × 10^6), NCI‐H1048 (5 × 10^6), or MV‐4‐11 (2 × 10^6) cells in Matrigel were subcutaneously inoculated into the left flanks of Balb/c nude mice (7‐ to 8‐week‐old females). When xenografted tumors grew to a sufficient volume, the tumor diameter was measured and its volume was calculated as follows:
# (§8) Tumor volume=long diameter×short diameter×short diameter×(1/2)
# (§9) Mice having a tumor of size approximately 200 mm^3 were used in efficacy or in vivo pharmacodynamics studies. T‐025 was dissolved in 0.5% methylcellulose solution. For the efficacy study, after randomized grouping, mice were treated with T‐025 twice daily once or twice weekly for 2 or 3 weeks. The mouse tumor volume and body weight were measured every 2–3 days.
# [15] = tested on: MDA-MB-468 xenograft; assay: Efficacy study in MDA-MB-468 xenograft model; type: in vivo, Balb/c nude mice; settings: 50 mg/kg oral, twice daily on 2 days per week
# Experimental: When xenografted tumors grew to a sufficient volume, the tumor diameter was measured and its volume was calculated as follows:
# as §8, §9
smiles,measurement,setting,value
"CNc1nc(NCc2ncccn2)c2c(-c3ccc4ncccc4c3)c[nH]c2n1 [T-025, N ^2‐methyl‐N ^4‐[pyrimidin‐2‐ylmethyl]‐5‐[quinolin‐6‐yl]‐7H‐pyrrolo[2,3‐d]pyrimidine‐2,4‐diamine]",IC50,[1],39.5 nM
same,IC50,[2],228 nM
same,IC50,[3],129 nM
same,IC50,[4],38.3 nM
same,IC50,[5],35.1 nM
same,IC50,[6],47.1 nmol/L
same,IC50,[7],43.3 nM
same,IC50,[8],239 nmol/L
same,IC50,[9],20.6 nM
same,IC50,[10],84.7 nM
same,IC50,[11],30.1 nmol/L
same,IC50,[12],30.1 nM
same,Unbound plasma Conc.,"[13]; oral 50 mg/kg, 8 h",104 nM
same,concentration at 2 h,"[13]; nude, mouse, plasma, po, 50 mg/kg, 2 h, read-out: Unbound plasma Conc.",554 nM
same,concentration at 4 h,"[13]; nude, mouse, plasma, po, 50 mg/kg, 4 h, read-out: Unbound plasma Conc.",97 nM
same,concentration at 8 h,"[13]; nude, mouse, plasma, po, 50 mg/kg, 8 h, read-out: Unbound plasma Conc.",105 nM
same,concentration at 24 h,"[13]; nude, mouse, plasma, po, 50 mg/kg, 24 h, read-out: Unbound plasma Conc.",0 nM
same,"anti-tumor efficacy, tumor volume",[14],profound anti‐tumor efficacies
same,nadir body weight loss,"[15]; 3 weeks, near the maximum tolerated dose",< 10%
same,"anti-tumor effect, tumor volume",[15]; end of 3-week treatment cycle,tumor volumes had shrunk relative to the initial volumes

# Source: publication PMC5991599, “Anti‐tumor efficacy of a novel CLK inhibitor via targeting RNA splicing and MYC‐dependent vulnerability” (EMBO Molecular Medicine, 2018)
